Reference: ChEMBL document CHEMBL4339187, “Discovery of a new class of MTH1 inhibitor by X-ray crystallographic screening” (Eur J Med Chem, 2019)
Calls of active or inactive are those of the source. The calls are words filed in the database; no cut-off is given here.

Tests used:
Escherichia coli = assay: Inhibition of Escherichia coli inorganic pyrophosphatase assessed as reduction in orthophosphate formation at 0.3 to 10 uM measured after 40 using pyrophosphate as substrate by malachite green dye based absorbance assay
[1] = molecular target: Oxidized purine nucleoside triphosphate hydrolase (Homo sapiens) (UniProt P36639); assay: Binding affinity to recombinant C-terminal 6xHis-tagged MTH1 (3 to 156 residues) (unknown origin) expressed in Escherichia coli BL21(DE3) cells assessed as decrease in fluorescence intensity at 1 to 10 uM after 3 mins by tryptophan fluorescence spectroscopy
[2] = molecular target: Oxidized purine nucleoside triphosphate hydrolase (Homo sapiens) (UniProt P36639); assay: Binding affinity to recombinant C-terminal 6xHis-tagged MTH1 (3 to 156 residues) (unknown origin) expressed in Escherichia coli BL21(DE3) cells assessed as decrease in fluorescence intensity at 1 to 200 uM after 3 mins by tryptophan fluorescence spectroscopy

| Structure (SMILES) | inhibition (Escherichia coli) | Activity [1] | Activity [2] |
| --- | --- | --- | --- |
| COc1c(O)cc2oc3cc(O)c(CC=C(C)C)c(O)c3c(=O)c2c1CC=C(C)C | inactive | – | – |
| COc1c(O)cc2oc3cc4c(c(O)c3c(=O)c2c1CC=C(C)C)CCC(C)(C)O4 | inactive | Active | – |
| Nc1nc2c(ncn2[C@H]2C[C@H](O)[C@@H](COP(=O)(O)OP(=O)(O)OP(=O)(O)O)O2)c(=O)[nH]1 | – | Active | Active |
| CC(C)=CCc1c(O)cc2oc3cc(O)c(O)c(CC=C(C)C)c3c(=O)c2c1O | – | Active | – |
| CNc1cc(-c2cccc(Cl)c2Cl)nc(N)n1 | – | Active | – |
